Source: US20260206761A1, “HETEROARYL-TRIAZOLE COMPOUNDS AS PESTICIDES” (Bayer Aktiengesellschaft, priority 2019, published 2026)

Tests used:
Assay type in all cases: in vivo
[1] = system: larvae of the banded cucumber beetle (Diabrotica balteata); experiment: Diabrotica balteata spray test; details: 168 h, after 7 days, read-out: activity (efficacy: seedlings grown); for pest or weed control at 100 g/ha: application rate 100 g/ha (=32 pg/well); for pest or weed control at 500 g/ha: application rate 500 g/ha (=160 pg/well)
Procedure, shortened: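 Read-out is % efficacy at day 7, 0% meaning no seedling growth and 100% growth equal to uninfested untreated controls. Test solutions (acetone/DMF concentrate diluted with water carrying 1000 ppm emulsifier) were sprayed onto 1-day-germinated wheat seeds, 5 per well, before infestation with 10-20 larvae.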

[2] = system: adult cat fleas (Ctenocephalides felis); experiment: Ctenocephalides felis in-vitro contact test, adult cat flea; details: application rate 5 μg/cm^2 (=500 g/ha), after 48 hours, read-out: activity (efficacy: fleas dead or moribund)
Procedure, shortened: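 Efficacy, as % of fleas dead or moribund, was read 48 h after 5-10 adult cat fleas were confined in glass tubes whose walls carried dried compound film (900 ppm, […]). Fleas failing to escape upward from a 45-50° C plate within 5 min counted as dead or moribund.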

[3] = system: larvae of the southern green stink bug (Nezara viridula); experiment: Nezara viridula spray test; details: 96 h, after 4 days; for mortality at 100 g/ha: application rate 100 g/ha; for mortality at 500 g/ha: application rate 500 g/ha
Procedure, shortened: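 Larva-infested barley (Hordeum vulgare) plants received a spray of test solution prepared from an acetone/DMF concentrate diluted in emulsifier-containing water (1000 ppm). Percent kill read 4 days later; 0% means no stink bugs dead.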

[4] = system: green peach aphid (Myzus persicae); experiment: Myzus persicae oral test; details: 120 h, application rate 4 ppm, after 5 days
Procedure, shortened: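 Five-day oral feeding assay measuring percent mortality of a mixed aphid population that draws compound-containing sugared IPL41 medium through sealing parafilm; the test preparation derives from 1 part compound per 100 parts acetone, diluted with water.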

[5] = system: Aedes aegypti strain MONHEIM; experiment: Aedes aegypti test (AEDSAE surface treatment & contact assay); details: 24 hours after contact, read-out: efficacy (mortality); for mortality at 4 mg/m2: surface concentration 4 mg/m^2, exposure 30 minutes; for mortality at 20 mg/m2: surface concentration 20 mg/m^2, exposure 30 minutes
Procedure, shortened: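 Percent mortality was read 24 h after adult MONHEIM mosquitoes were held for 30 min on a tile treated with compound. Compound applied from acetone solution (2 mg/ml) containing 2000 ppm rapeseed oil methyl ester, after evaporation.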

[6] = system: Rhipicephalus microplus larvae (strain Parkhurst, resistant against synthetic pyrethroids); experiment: Rhipicephalus (Boophilus) microplus in-vitro contact test, larval cattle tick; details: after 48 hours, read-out: activity (efficacy: larvae dead or moribund); for pest or weed control at 100 g/ha: application rate 1 pg/cm^2 (=100 g/ha); for pest or weed control at 500 g/ha: application rate 5 pg/cm^2 (=500 g/ha)
Procedure, shortened: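 Larvae (20-50 per tube) exposed to dry compound film on glass tube walls, 5 μg/cm^2 at 900 ppm, applied from acetone. After 48 h at 27° C./85% RH, tubes tapped and negative geotaxis scored; efficacy as percent dead or moribund larvae.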

[7] = system: green peach aphid (Myzus persicae); experiment: Myzus persicae spray test; details: 120 h, after 5 days; for mortality at 100 g/ha: application rate 100 g/ha; for mortality at 500 g/ha: application rate 500 g/ha
Procedure, shortened: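 Chinese cabbage leaf disks carrying all instars of M. persicae sprayed with compound in acetone/DMF, diluted in water with 1000 ppm alkylarylpolyglycol ether emulsifier. Percent mortality scored after 5 days (100% = all aphids killed).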

[8] = system: Musca domestica strain WHO-N; experiment: Musca domestica test (MUSCDO surface treatment & contact assay); details: 24 hours after contact, read-out: efficacy (mortality); for mortality at 20 mg/m2: surface concentration 20 mg/m^2, exposure 30 minutes; for mortality at 4 mg/m2: surface concentration 4 mg/m^2, exposure 30 minutes
Procedure, shortened: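 Compound dissolved at 2 mg/ml in acetone with 2000 ppm rapeseed oil methyl ester and pipetted onto a glazed tile. After the acetone evaporated, adult WHO-N flies were exposed to the dried surface for 30 min, with % mortality scored 24 h after contact.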

Row | Compound | pest or weed control at 100 g/ha [1] | pest or weed control at 500 g/ha [1] | pest or weed control at 5 µg/cm2 [2] | mortality at 100 g/ha [3] | mortality at 500 g/ha [3] | mortality at 4 ppm [4] | mortality at 4 mg/m2 [5] | mortality at 20 mg/m2 [5] | pest or weed control at 100 g/ha [6] | mortality at 100 g/ha [7] | mortality at 500 g/ha [7] | pest or weed control at 500 g/ha [6] | mortality at 20 mg/m2 [8] | mortality at 4 mg/m2 [8]
1 | C[C@H](NC(=O)c1cc(Cl)cc(S(C)(=O)=O)c1)c1nc(C2CC2)nn1-c1ccc(C#N)cn1 [I-4] | 100% | 100% | 90% | 100% | 100% | 100% | 80 to 100% | 80 to 100% | 90% | – | – | – | – | –
2 | CSc1cc(C#N)cc(C(=O)N[C@@H](C)c2ncnn2-c2ccc(C#N)cn2)c1 [II-3] | 100% | 100% | 100% | 100% | 100% | 100% | 80 to 100% | 80 to 100% | 90% | 100% | 100% | 90% | – | –
3 | Cc1nc([C@H](C)NC(=O)c2cc(C(F)(F)F)n(C)n2)n(-c2ccc(C#N)cn2)n1 [II-7] | 100% | 100% | 100% | – | 90% | – | 80 to 100% | 80 to 100% | – | – | – | 100% | 80 to 100% | –
4 | Cc1nc([C@H](C)NC(=O)c2cc(Cl)nn2C)n(-c2ccc(C#N)cn2)n1 [II-11] | 100% | 100% | 100% | – | – | – | 80 to 100% | 80 to 100% | 100% | – | – | 100% | – | 80 to 100%
5 | C[C@H](NC(=O)c1cc(C#N)cc([S+](C)[O-])c1)c1ncnn1-c1ccc(C#N)cn1 (some centres unmarked) [II-12] | 100% | 100% | 100% | 100% | 100% | 100% | 80 to 100% | 80 to 100% | 80% | 90% | 90% | 100% | – | –
6 | C[C@H](NC(=O)c1cc(C(F)(F)F)cc(S(C)(=O)=O)c1)c1ncnn1-c1ccc(Cl)cn1 [II-16] | 100% | 100% | 100% | 100% | 100% | 100% | 80 to 100% | 80 to 100% | 100% | – | – | 100% | – | –
7 | C[C@H](NC(=O)c1cc(Cl)cc(S(=O)(=O)C(F)F)c1)c1ncnn1-c1ccc(C#N)cn1 [II-17] | 100% | 100% | 100% | – | 100% | 100% | 80 to 100% | 80 to 100% | 100% | – | – | 100% | – | –
8 | C[C@H](NC(=O)c1cc(C2CC2)cc(C(F)(F)F)c1)c1ncnn1-c1ccc(Cl)cn1 [II-27] | 100% | 100% | 100% | 100% | 100% | – | 80 to 100% | 80 to 100% | 100% | – | – | 100% | 80 to 100% | 80 to 100%
9 | C[C@H](NC(=O)c1cc(C#N)cc(S(C)(=O)=O)c1)c1ncnn1-c1ccc(Cl)cn1 [II-29] | – | 100% | 100% | 100% | 100% | 100% | 80 to 100% | 80 to 100% | 100% | 90% | 100% | 100% | – | –
10 | C[C@H](NC(=O)c1cc(C(F)(F)F)cc(S(=O)(=O)C2CC2)c1)c1ncnn1-c1ccc(C#N)cn1 [II-32] | 100% | 100% | – | 100% | 100% | 100% | 80 to 100% | 80 to 100% | 100% | – | 90% | 100% | 80 to 100% | 80 to 100%
11 | C[C@H](NC(=O)c1cc(Cl)cc(S(C)(=O)=O)c1)c1ncnn1-c1ncc(OC(F)F)cn1 [II-42] | 80% | – | 100% | 100% | – | 100% | 80 to 100% | 80 to 100% | 100% | 90% | – | 100% | – | –
12 | C[C@H](NC(=O)c1cc(Cl)cc(S(=O)(=O)C(F)(F)F)c1)c1ncnn1-c1ncc(OC(F)F)cn1 [II-43] | 100% | – | 100% | 100% | – | 100% | 80 to 100% | 80 to 100% | 100% | – | – | 100% | – | –
13 | C[C@H](NC(=O)c1cc(C#N)cc(C2CC2)c1)c1ncnn1-c1ncccn1 [II-54] | 100% | – | 100% | 100% | – | 100% | 80 to 100% | 80 to 100% | 90% | 100% | – | 80% | – | –
